The values that follow come from patent publication US11692011B2, “Hepatitis B virus-derived polypeptide and anti-viral use thereof” (priority 2018, dated 2023).

No end group written: not given here.

Data set [1] deals with HBV. Description: Anti-HBV effect in HepG2.2.15 or pHBV-1.2x-WT transfected HepG2 cells (HBsAg/HBeAg ELISA, Q-PCR, Southern blot). Type of data set: cell-based. Conditions: for e antigen / s antigen: treated for 48 hr. The method, then: In this Experimental Example, HBV polymerase-derived peptides having anti-HBV effects were identified, and cell viability upon treatment thereof was analyzed. […] Then, quantitative PCR and ELISA were performed to examine virion replication and HBV surface antigen (HBsAg).
Chronic HBV infection is known to cause severe liver diseases such as cirrhosis and hepatocellular carcinoma, unlike acute infection. Therefore, it is important to develop anti-HBV drugs that overcome chronic infections. However, since the HBV genome is integrated into the host chromosome, the complete removal of the virus from human liver and serum remains a difficult problem. Therefore, in this Experimental Example, to evaluate the anti-viral effect of Poly6, HepG2.2.15 permanent cell line that continuously expresses HBV was treated with Poly6. Further, HepG2 cells were seeded in a 6-well plate, and then transiently transfected with pHBV-1.2×-WT. […] To measure secreted HBsAg and HBeAg in culture supernatants, HBsAg (BIOKIT) and HBeAg (AccuDiag) ELISA were performed according to experimental methods provided. For detection of 8-hydroxy-2′-deoxyguanosine (8-OHdG) activity, an 8-OHdG assay kit (OxiSelect Oxidative DNA Damage ELISA kit, Cell Biolabs) and ELISA were performed according to the manufacturer's protocol.
To measure extracellular virion secretion, Southern blot analysis was performed. In detail, before ultra-centrifugation at 4° C. and 24,000 rpm for 3 hr, cell debris was removed, and virions were precipitated from the supernatant using 8% PEG6000 (Sigma) on ice for 1 hr. Pellets were harvested with PBS, and HBV DNA was collected using a QIAamp DNA mini kit (QIAGEN) according to the manufacturers instructions. Viral DNA was measured using quantitative real-time PCR (Q-PCR). PCR amplification was performed using a QPCR primer set targeting a small surface gene, which is designed to amplify an a101-bp product (Table 2). Q-PCR was performed using a commercial SensiFAST SYBR Lo-ROX kit (BIOLINE) and an HBV Genesig standard kit (Primer design) to calibrate a viral load. In addition, to detect extracellular HBV DNA, supernatants were collected and HBV particles were precipitated using […] (Sigma) as described above. Virus pellets were collected from PBS and DNA was extracted with a lysis buffer (0.25% SDS, 250 mM Tris-HCl, pH 7.4 and 250 mM EDTA). Purified HBV DNA was separated on a 1% agarose gel, transferred to a nylon membrane (Hybond N+; Amersham) by Southern blotting, and hybridized with a 32P-labeled wild-type, full length HBV DNA probe. Analysis was performed using a random primer DNA labeling kit (TaKaRa). Autoradiography was performed and analyzed using a BAS 2500 image analyzer (Fuji Photo Film).

Data set [2] relates to HIV-1. Conditions: 10 μM, 2 days, HIV-1-infected MT-4 cells.
Method: To evaluate anti-HIV-1 effects of the three polypeptides, cell-based anti-viral effects were analyzed. MT-4 cells (4×10^5 cells) were infected with HIV-1 (4×10^5 CCID50) for 1 hour. The MT-4 cells were obtained from NIH/AIDS Research and Reference Reagent Program. 293FT cells were transfected for 48 hr with HIV-1 using a pBR_HIV-1_M_NL4-3_IRES_eGFP vector (DS441) which co-expresses Nef and enhanced green fluorescence protein (eGFP) from a single bicistronic RNA, and Lipofectamine 2000 reagent (Life Technologies). A supernatant containing a viral precursor HIV-1 was harvested, and the viral titer was determined using p24 ELISA (ABL). For amplification of infectious HIV-1, MT-4 cells were infected with the viral precursor HIV-1 at a multiplicity of infection (MOI) of 0.5 for 72 hr. […]
In this regard, DMSO and AZT were purchased from Sigma-Aldrich. After 2 days of incubation, GFP images were obtained using a fluorescence microscope. The relative GFP intensity was determined using an ImageJ software program (National Institutes of Health) in pixels per area. […] Cell viability against the treated reagents was assessed by an MTT assay.
In detail, MT-4 cells were prepared at a density of 1×10^4 cells, and incubated with varying concentrations of Poly6 for 5 days. Cytotoxicity was determined using an MTT assay kit (Promega). […]
The test system of data set [3] is HepG2 cells. Description: Cell viability (MTS assay), HepG2. Format: cell-based, human. Conditions: up to 10 μM. (In general: Formazan colour is commonly taken as a measure of viable cells.)
Method: (§2) In detail, HepG2, HepG2.2.15, and HepG2-hNTCP-C4 cells (expressing NTCP receptors on the cell membrane) were plated in a 96 microplate (1×10^4 cells/well), and incubated for 5 days with increasing concentrations of ETV (30 nM) and Poly6. For an MTS assay, a cell-titer 96 aqueous one solution was directly added to each well, and the plate was incubated for 3 hr. The plate was read at 490 nm, and each analysis was repeated in triplicate.
The test system of data set [4] is HepG2.2.15 cells. Conditions: up to 10 μM.
Method: as §2
Data set [5] deals with HepG2-hNTCP-C4 cells. As to conditions: up to 10 μM.
Method: as §2
Data set [6] deals with MT-4 cells. Description: Cytotoxicity assay (MTT) in MT-4 cells. Conditions: up to 25 μM, 5 days.
Method: Cell viability against the treated reagents was assessed by an MTT assay.
In detail, MT-4 cells were prepared at a density of 1×10^4 cells, and incubated with varying concentrations of Poly6 for 5 days. Cytotoxicity was determined using an MTT assay kit (Promega).
Data set [7] concerns mitochondrial reactive oxygen species (mtROS). Description: Mitochondrial reactive oxygen species (MitoSox, flow cytometry) in HepG2 cells. Conditions: for production of reactive oxygen species (mtROS) by mitochondrial stress: HepG2 cells, 2 hr to 24 hr, compared with PBS, rotenone 0.5 μM. Type of data set: cell-based, human. How it is done:
After culturing the cells for an appropriate time, the cells were incubated with 5 μM of MitoSox (Molecular probes) at 37° C. for 30 min. For flow cytometry, cell pellets were re-suspended in FACS buffer (1% FBS and 1 mM EDTA in PBS) and fixed with 4% paraformaldehyde. To prevent mitochondrial dysfunction, 10 μM of MitoTempo (SigmaAldrich) was pretreated for 12 hr, and 0.5 μM of rotenone (SigmaAldrich) reagent was used as a positive control for ROS induction through mitochondrial stress.
Background: A flow cytometer gives signals particle by particle.

The test system of data set [8] is HIV-1. Conditions: HIV-1-infected MT-4 cells, 5 days, dose-dependent manner.
Method: In detail, MT-4 cells were prepared at a density of 1×10^4 cells, and incubated with varying concentrations of Poly6 for 5 days. Cytotoxicity was determined using an MTT assay kit (Promega). To analyze the anti-cytotoxic effect of Poly6 from cell death caused by cytotoxicity due to HIV-infection, MT-4 cells (1×10^4 cells) were infected with HIV-1 (1×10^4 CCID50), incubated for five days, and then subjected to cell viability assays. In addition, to determine HIV-1 titers in the supernatant, p24 ELISA was performed. […] Similar to AZT, cytopathic inhibitory effects of Poly6 on HIV-1-infected MT-4 cells were analyzed.
For data set [9], the system named is IFN-I. Description: IFN-I related mRNA levels in HepG2-2.15 cells. As to conditions: compared with PBS group. Type of data set: cell-based, human. The source says: IFN-I is induced by host cells to regulate viral infection (Stetson & Medzhitov, 2006). Therefore, to examine the effect of Poly6 on IFN-I production in HepG2-2.15 cells and mouse liver, mRNA levels of IFN-β, RIG-I, and ISG15 were examined.
In addition, to measure IFN levels by indirectly using a luciferase reporter gene for IFN-I bioassay and neutralization analysis, hMH55-293-ISRE cells was used, into which interferon sensitive response element (ISRE) associated with the luciferase reporter gene was inserted at the 3′-end using 5 μg of puromycin (Sigma Aldrich). After collecting supernatants from cells treated with each reagent for 24 hr or 48 hr, the supernatants were added to hMH55-293-ISRE cells for 6 hr. After incubation, cells were washed with PBS, and lysed with a reporter lysis buffer (E1500, Promega) at room temperature for 30 min. A luciferase assay reagent (E1500, Promega) was added and luminescence was measured using a TECAN m200 reader (TECAN).
(§1) Through the combination treatment of entecavir, which is currently used as an HBV anti-viral agent having a mechanism whereby activity of HBV polymerase in the nucleus is inhibited and converted to a phosphorylated form, and Poly6, which was confirmed to increase IFN-I, its anti-HBV effect and synergistic effect of IFN-I increase were examined. HepG2-2.15 cells were incubated at a density of 5×10^5 cells/well on a 6-well culture plate for 24 hr, and treated with PBS, ETV, or Poly6 alone or in combination of two substances. After incubating the cells for 48 hr, supernatants were collected, and subjected to ELISA, qPCR, and LDH assay.
Meanwhile, to examine a synergistic effect of the combination treatment of two substances with respect to the increase level of IFN-I, mRNAs of single treatment groups and combination treatment groups were extracted, and IFN-α, IFN-β, and TNF-α expression levels were observed. […] In addition, IFN levels were indirectly measured using a luciferase reporter gene of hMH55-293-ISRE cell.

In data set [10] the test system is HBV. Kind of data set: Combination treatment of entecavir and Poly6 in HepG2-2.15 cells (ELISA, qPCR). Type of data set: cell-based. As to conditions: HepG2-2.15, 48 hr. How it is done: as §1
The mark [11] stands for this setting: compared with PBS (combination vs each single treatment).

Take GRLVFQT (Hepatitis B virus) [Poly7]: in data set [1], the e antigen entry was “reduced” and the s antigen entry is recorded as “reduced”. For the same compound, the “virus production (HIV-1 titers by GFP imaging and p24 ELISA)” value in data set [2] was “reduced”.
GRLVFQ [Poly6, GRLVFQ]: the “cytotoxic activity / cell viability, HepG2” value in data set [3] is given as “did not exert significant cytotoxic activity”. In addition, the “cytotoxic activity / cell viability, HepG2.2.15” value in data set [4] is “did not exert significant cytotoxic activity”. Also, the “cytotoxic activity / cell viability, HepG2-hNTCP-C4” value in data set [5] is “did not exert significant cytotoxic activity”. Also, in data set [6], the “cytotoxic activity against MT-4 cells (MTT)” value is given as “did not exert significant cytotoxic activity”.
Consider `CC1(C)CC(NC(=O)C[P+](c2ccccc2)(c2ccccc2)c2ccccc2)CC(C)(C)N1[O]` [MitoTEMPO], for which the “mitochondrial reactive oxygen species increased by rotenone and Poly6, after antioxidant treatment” value in [7] (MitoTempo 10 μM pretreated 12 hr) was “reduced again”.
On to `C=C(C)[C@H]1Cc2c(ccc3c2O[C@@H]2COc4cc(OC)c(OC)cc4[C@@H]2C3=O)O1` [rotenone], for which, in [7], the “production of reactive oxygen species (mtROS) by mitochondrial stress” value is given as “significantly increased”.
With `Cc1cn([C@H]2C[C@H](N=[N+]=[N-])[C@@H](CO)O2)c(=O)[nH]c1=O` [AZT, 3-azido-3-deoxythymidine], the “cell protective effect (cytopathic inhibitory effect)” value in data set [8] is “significant cell protective effect”.
On to GRLVF (Hepatitis B virus) [Poly5], for which, in data set [1], the e antigen result is on record as “reduced” and the s antigen entry is reported as “reduced”. The “virus production (HIV-1 titers by GFP imaging and p24 ELISA)” value in [2] is “reduced”.
In the case of `C=C1[C@H](CO)[C@@H](O)C[C@@H]1n1cnc2c(=O)[nH]c(N)nc21` [ETV, entecavir], in [9], the “mRNA level of IFN-β” value is “no statistical significance”, the “mRNA level of ISG15” value is listed as “no statistical significance” and the “mRNA level of RIG-I” value is listed as “no statistical significance”. Further, the “extracellular HBV DNA levels” value in data set [10] (compared with PBS (combination also vs single treatment)) was “statistically significantly reduced”. For the same compound, in data set [10] (setting [11]), the “level of extracellular e antigen” value is “no significant reduction effect” and the “level of extracellular s antigen” value is “no significant reduction effect”. Also, in [1] (ETV 30 nM, Poly6 10 μM, 2 days), the “viral replication levels (viral titers)” value is “reduced by ETV, but there was no statistical significance”. Moreover, the “extracellular virion secretion (Southern blot)” value in data set [1] (compared with PBS) is reported as “clearly decreased”. In addition, the “production of reactive oxygen species (mtROS) by mitochondrial stress” value in [7] was “not observed”.
